Test results reported in patent publication US20210137890A1, “DEUTERATED IMIDAZOLIDINEDIONE COMPOUNDS AND THEIR USES” (priority 2018, published 2021).
Entries after “also recorded” stand apart in the source; their conditions may differ. Read-outs that look alike come from different tables or passages of the source.

What was measured:
serum PSA = conditions: mCRPC patients
Experimental: There were two (2) stages or arms to the study, Stage A and Stage B.
During Stage A, the dose escalation tolerance (or tolerability) study was conducted using the traditional rule-based 3+3 design. All subjects in Stage A were involved in pharmacokinetic studies. […]
Stage A: PSA was dynamically observed to assess the initial dose-effectiveness based on data from subjects in each dose group until the end of the 12-week trial period. Serum PSA test, safety evaluation (including blood, liver and kidney function, electrocardiogram, etc.) were performed at the 6th, 8th, 10th and 12th weeks of visit, and the trial ended at the 12th week of visit.
They show the percentage change in PSA levels for subjects in the study. In both figures, the vertical axis represents the percent change in PSA levels from the baseline and the horizontal axis (numbers that are in line with the “0%”) identifies individual patient or subject numbers.

[1] = mouse, in vivo
[2] = Clinical pharmacokinetic study of HC-1119 (Stage A, plasma M0, M1, M2); conditions: steady state, 80 mg HC-1119
Experimental: Single dose biological sample collection: Subjects were given a single fasting dose on the first day of the study. Blood samples were collected before (−0.5˜0 h) and after administration 0.5, 0.75, 1, 2 h (±5 min), 4, 8, 12 h (±15 min), 24 h (±30 min, Day 2 before administration). Venous blood (3 mL) was collected, set in an anticoagulant tube (type of anticoagulant was based on established analytical test methods).
Continuous administration of biological samples collected: Blood sample collected on continuous administration Day 7, 21, 35, 42, 56, 70, 84 before administration, on Day 84 after administration 0.5, 0.75, 1, 2 h (±5 min), 4, 8, 12 h (±15 min), 24 h (±30 min, Day 85 before administration). Venous blood (3 mL) was collected, set in an anticoagulant tube (type of anticoagulant was based on established analytical test methods).
Sample Handling: Samples were centrifuged (about 3000 rpm for 10 minutes) to separate the plasma as soon as possible. Isolated plasma samples were stored in duplicate in plasma cryostat, with the tagged population's enrollment number, subject's initials, date and time of collection. Plasma samples were stored in −60° C.˜−80° C. freezer as soon as possible. One blood sample was retained at the research center and one blood sample was shipped to a specialist testing company for plasma drug concentration determination.

[3] = dog, in vivo, 90 mg/kg
[4] = In vitro activity of metabolites M1 and M2; conditions: in vitro experiments
AR = biological target: T1, AR (Homo sapiens, UniProt P10275); conditions: read-out: Ki for AR binding
T1 sequence (P10275 1-920): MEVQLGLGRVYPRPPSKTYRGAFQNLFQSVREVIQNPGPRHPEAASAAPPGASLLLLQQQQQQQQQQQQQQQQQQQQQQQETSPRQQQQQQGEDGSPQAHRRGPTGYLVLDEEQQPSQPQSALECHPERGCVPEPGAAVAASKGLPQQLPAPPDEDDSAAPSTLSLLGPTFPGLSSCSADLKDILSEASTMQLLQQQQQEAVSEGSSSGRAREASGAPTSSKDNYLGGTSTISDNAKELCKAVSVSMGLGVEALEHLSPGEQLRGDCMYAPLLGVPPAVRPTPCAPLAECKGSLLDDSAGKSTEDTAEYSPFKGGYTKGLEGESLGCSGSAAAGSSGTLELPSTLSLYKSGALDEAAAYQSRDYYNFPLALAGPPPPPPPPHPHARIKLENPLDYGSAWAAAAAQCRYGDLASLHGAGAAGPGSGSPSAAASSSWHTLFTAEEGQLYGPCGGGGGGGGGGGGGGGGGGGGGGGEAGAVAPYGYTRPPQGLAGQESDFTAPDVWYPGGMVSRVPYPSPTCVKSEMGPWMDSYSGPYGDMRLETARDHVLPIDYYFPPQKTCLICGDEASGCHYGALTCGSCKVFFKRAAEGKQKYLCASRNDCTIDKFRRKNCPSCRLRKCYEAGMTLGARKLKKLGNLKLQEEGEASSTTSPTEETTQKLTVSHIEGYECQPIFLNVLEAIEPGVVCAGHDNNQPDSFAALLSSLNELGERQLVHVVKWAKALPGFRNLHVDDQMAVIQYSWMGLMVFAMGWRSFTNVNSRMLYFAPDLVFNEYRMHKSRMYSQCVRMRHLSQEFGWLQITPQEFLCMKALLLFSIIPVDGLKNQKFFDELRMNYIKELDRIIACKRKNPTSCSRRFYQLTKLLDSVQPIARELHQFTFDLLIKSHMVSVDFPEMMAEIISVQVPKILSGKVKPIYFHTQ

LNCaP = LNCaP growth inhibition; assay type: cell-based
[5] = Brain penetration of parental drug and metabolites in mice (PD study); conditions: mouse, po, 10 mg/kg
[6] = Phase I dose escalation study, human; cited from earlier work

Q: With [2H]C([2H])([2H])NC(=O)c1ccc(N2C(=S)N(c3ccc(C#N)c(C(F)(F)F)c3)C(=O)C2(C)C)cc1F [HC-1119, 4-{3-[4-cyano-3-(trifluoromethyl)phenyl]-5,5-dimethyl-4-oxo-2-thio-1-imidazolidinyl}-2-fluoro-N-trideuteromethylbenzamide] as the compound, how does the “maximum decrease in PSA levels by more than 50% from the baseline (maximum response rate)” value (serum PSA; 40 mg dose group) read?
A: 66.7%

Q: What about the “rate of decrease in PSA levels by more than 50% from the baseline (response rate at week 12)” value (serum PSA; 40 mg dose group) of the same compound?
A: 66.7%

Q: And the “maximum decrease in PSA levels by more than 50% from the baseline (maximum response rate)” value (serum PSA; 80 mg dose group)?
A: 88.8%

Q: And the “rate of decrease in PSA levels by more than 50% from the baseline (response rate at week 12)” value (serum PSA; 80 mg dose group)?
A: 75%

Q: What about the “maximum decrease in PSA levels by more than 50% from the baseline (maximum response rate)” value (serum PSA; 160 mg dose group) of the same compound?
A: 50%

Q: And the “rate of decrease in PSA levels by more than 50% from the baseline (response rate at week 12)” value (serum PSA; 160 mg dose group)?
A: 57.1%

Q: And the “maximum decrease in PSA levels by more than 50% from the baseline (maximum response rate)” value (serum PSA; 200 mg dose group)?
A: 100%

Q: What about the “rate of decrease in PSA levels by more than 50% from the baseline (response rate at week 12)” value (serum PSA; 200 mg dose group) of the same compound?
A: 33.3%

Q: And the Brain ([1]; po, 10 mg/kg)?
A: 1393 ng/g

Q: And the Plasma ([1]; po, 10 mg/kg)?
A: 4686 ng/mL

Q: What about the “C24 h for the combination of the active drugs (M0+M2)” value [2] of the same compound?
A: close to that of 160 mg enzalutamide

Q: And the “adult equivalent dose (HED) calculated from HNSTD” value [3]?
A: 2916 mg/day

Q: With CC1(C)C(=O)N(c2ccc(C#N)c(C(F)(F)F)c2)C(=S)N1c1ccc(C(=O)O)c(F)c1 [M1] as the compound, how does the in vitro activity [4] read?
A: inactive; also recorded: not active

Q: Which results are given for CC1(C)C(=O)N(c2ccc(C#N)c(C(F)(F)F)c2)C(=S)N1c1ccc(C(N)=O)c(F)c1 [M2]?
A: Ki (AR): 57 nM; crossing of the blood-brain barrier (BBB) [1]: more readily cross the blood-brain barrier; IC50 (LNCaP): 0.13 nM

Q: What does the source list for CNC(=O)c1ccc(N2C(=S)N(c3ccc(C#N)c(C(F)(F)F)c3)C(=O)C2(C)C)cc1F [enzalutamide]?
A: concentration at 24 h ([5]; brain): 647 ng/g; Kp at 24 h ([5]; brain/plasma): 0.31; concentration at 24 h ([5]; plasma): 2100 ng/mL; maximum tolerable dosage (MTD) [6]: 240 mg/day
